Assay results reported in article PMC11109624, “Celastrol Ameliorates Neuronal Mitochondrial Dysfunction Induced by Intracerebral Hemorrhage via Targeting cAMP‐Activated Exchange Protein‐1” (Advanced Science, 2024).

Target: T1, cNMP-EPAC-1 (cNMP domain of EPAC-1, 149-318) (Homo sapiens, UniProt O95398)
T1 construct: gene RAPGEF3; pGEX4T1 N-terminal GST tag, removed by protease; E. coli BL21(DE3); glutathione, Ni-NTA and Superdex 75
T1 sequence (O95398 191-360): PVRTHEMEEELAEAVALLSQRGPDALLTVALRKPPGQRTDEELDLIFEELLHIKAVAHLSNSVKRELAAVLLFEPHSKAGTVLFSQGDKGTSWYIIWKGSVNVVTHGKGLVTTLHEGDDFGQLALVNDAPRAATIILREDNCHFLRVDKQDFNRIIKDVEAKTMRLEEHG
Experiment: isothermal titration calorimetry (MicroCal iTC200)
Assay type: binding

Q: Which Kd does the source give for `CC1=C(O)C(=O)C=C2C1=CC=C1[C@@]2(C)CC[C@@]2(C)[C@@H]3C[C@](C)(C(=O)O)CC[C@]3(C)CC[C@]12C` [celastrol] here?
A: 1570 nM
